From patent publication US20250064859A1, “HPSC-DERIVED ARTICULAR CHONDROCYTE COMPOSITIONS, SYSTEMS AND METHODS OF USE THEREOF” (The Children's Medical Center Corporation, priority 2022, published 2025)

Columns and labels:
Assay type in all cases: cell-based, human
[1] = tested on: monolayer-derived chondrocytes; experiment: Micromasses seeded with monolayer-derived chondrocytes and treated with TGFβ or BMP; phenotype and qPCR; details: for cartilage phenotype induced in micromass culture: monolayer-derived chondrocytes plated in micromass
Excerpt: FIGS. 9A-9C are bar graphs showing relative mRNA copy number for COL10A1 (growth plate cartilage marker) (FIG. 9A), PRG4 (articular cartilage marker) (FIG. 9B) and COL2A1 (general cartilage marker) (FIG. 9C) of monolayer-derived chondrocytes (derived with either FGF-alone or the combination of TGFβ+FGF+FSK treatment) that were subsequently cultured in micromass for 6 weeks in the presence of TGFβ or BMP4 to generate articular or growth plate-like chondrocytes and cartilage tissues. FIGS. 9D-9F are bar graphs showing mRNA copy number for COL10A1 (FIG. 9D), PRG4 (FIG. 9E) and COL2A1 (FIG. 9F) of monolayer-derived chondrocytes (derived with either FGF-alone or the combination of TGFβ+FGF+FSK treatment) that were subsequently cultured in micromass (uM) for 12 weeks in the presence of TGFβ or BMP4 to generate articular or growth plate-like chondrocytes and cartilage tissues.
Micromasses were seeded with monolayer-derived chondrocytes and were treated with TGFβ to induce articular cartilage (i.e., to reproduce “superficial zone-like” chondrocytes that express PRG4) or with BMP to induce growth plate cartilage (GPC; i.e., to produce hypertrophic chondrocytes that express COL10A1). Monolayer-derived chondrocytes were generated with the following compositions: FGF alone or TGF+FGF+FSK30.

[2] = tested on: micromass cultures (hPSC-derived articular cartilage tissues); experiment: BMP4 challenge of TGFβ3-treated micromass cultures; COL10A1 mRNA normalized to TBP
Excerpt: FIGS. 17A-17C depict copy number COL10A1 mRNA normalized to TBP in micromass cultures at indicated timepoints and treatment regimens. FIG. 17A depicts copy number COL10A1 mRNA in micromass cultures treated with TGFB3 from 2-24 weeks, and in TGFB3-treated micromass cultures that were switched to BMP4-supplemented media after 2 weeks (BMP4 @2w), 2 weeks, and 4, 6, 8, 10, 12 weeks in which gene expression was quantified after 2, 6, 12, or 24 weeks after switching media to BMP4-supplementation. FIG. 17B and FIG. 17C depict copy number PRG4 (FIG. 17B) and COL10A1 (FIG. 17C) in micromass cultures after 2, 6, 12, and 24 weeks (w).
FIGS. 17A-C depict copy number COL10A1 mRNA normalized to TBP in micromass cultures at indicated timepoints and treatment regimens. […] Data represents average of 4 biological replicates, error bars indicate standard error.

paraxial mesoderm = experiment: Chondrogenic potential of day 14 paraxial mesoderm induced with (420i) or without (420) the Wnt inhibitor in stage 2; details: 420 mesoderm treated with the Wnt inhibitor from day 3-5 of differentiation/stage 2
Description: Five experiments were conducted, and qPCR tests were performed on the cells after 4 weeks and the data was pooled and analyzed. In a second test, 420 and 420i paraxial mesoderm cells were plated in micromass cultures supplemented with TGFβ and qPCR was performed after 12 weeks of micromass expansion. In a third test, 420 and 420i paraxial mesoderm cells were plated in serum-free monolayer culture with no additional factors and qPCR was performed following 4 weeks of culture. A second group of 420 and 420i paraxial mesoderm cells were plated in serum-free monolayer culture supplemented with either FGF alone or with a mixture of FGF, TGFβ and Forskolin (FSK). qPCR was performed after 4 weeks in culture.

| Compound | PRG4 (articular cartilage gene) expression ([1]; micromass) | cartilage phenotype induced in micromass culture [1] | COL10A1 (hypertrophic chondrocyte/GPC gene) expression ([1]; micromass, regardless of monolayer treatment prior to micromass culture) | COL10A1 mRNA response to BMP4 challenge ([2]; micromass treated with TGFβ for 8 weeks or less prior to BMP4) | COL10A1 mRNA response to BMP4 challenge ([2]; micromass treated with TGFβ for at least 10 weeks prior to BMP4) | chondrogenic potential of paraxial mesoderm (paraxial mesoderm) |
| --- | --- | --- | --- | --- | --- | --- |
| TGFB: transforming growth factor β3, TGFβ agonist used to induce articular cartilage | higher | induces articular-like cartilage phenotype | – | – | – | – |
| BMP4: Bone Morphogenetic Protein 4, used to induce growth plate cartilage | – | induces growth plate cartilage phenotype | higher | upregulate COL10A1 mRNA | do not upregulate COL10A1 mRNA | – |
| Cc1ccc2nc(NC(=O)CSc3nc4c(c(=O)n3-c3ccccc3)SCC4)sc2c1 [IWP2, N-(6-Methyl-2-benzothiazolyl)-2-[(3,4,6,7-tetrahydro-4-oxo-3-phenylthieno[3,2-d]pyrimidin-2-yl)thio]-acetamide] | – | – | – | – | – | increased chondrogenic potential |
